We go through 13 molecules from paper PMC6009894, “Molecular modelling insights into a physiologically favourable approach to eicosanoid biosynthesis inhibition through novel thieno[2,3-b]pyridine derivatives” (Journal of Enzyme Inhibition and Medicinal Chemistry, 2018).

The structures appear in SMILES notation. Values joined by “and” are separate entries in the source; they are usually repeats but may differ in a detail not shown here. Equal entries are not always repeated.

Series [1] deals with carrageenan-induced rat paw oedema. Nature of the series: carrageenan-induced rat paw oedema assay. Format: in vivo, Sprague–Dawley rats. Particulars: for Inhibition of acute inflammation % inh / Swel (mean difference in rat paw volume between right and left paw): dose equivalent to 70 mg kg-1 ibuprofen; for Swel (mean difference in rat paw volume between right and left paw): DMSO. The method, then: According to a priori test results, experiments were conducted on young adult male Sprague–Dawley rats (5 rats per group), weighing 140–170 g. The animals were housed at cages in a temperature controlled (25 ± 1 °C) environment and were fed ad libitum with standard laboratory chow and allowed free access to water. […] The animal protocol is in accordance with the Animal Ethical Care regulations in the Faculty of Pharmacy, Helwan University.
Compounds (equimolar to the reference drug) were dissolved in DMSO and administrated subcutaneously. One hour later, paw oedema was induced by subplantar injection of 0.1 ml of 1% carrageenan (Sigma-Aldrich, St. Louis, MO) into the right hind paw. Paw volume was measured using a water plethysmometer (Basile, Comerio, Italy). The difference between the right and left paw volume was measured at 1, 2, 3, and 4 h after induction of inflammation.
The control group (five rats per group) received DMSO subcutaneously and carrageenan in the subplantar region. Results were expressed as percentage inhibition of inflammation.
In general terms: Carrageenan injected into the paw causes an acute inflammation.

As for `Cc1cc(C)c(C#N)c(=S)[nH]1` [Compound 1, 1,2-Dihydro-4,6-dimethyl-2-thioxopyridine-3-carbonitrile], the “Inhibition of acute inflammation % inh” value stood at 0% in series [1] (1 h), 0% in series [1] (2 h), 38.725% in series [1] (3 h) and 43.91% in series [1] (4 h). Moreover, the “Swel (mean difference in rat paw volume between right and left paw)” value turned out to be 0.503 in series [1] (1 h after carrageenan), 0.353 in series [1] (2 h after carrageenan), 0.33 in series [1] (3 h after carrageenan) and 0.353 in series [1] (4 h after carrageenan).
One may read the melting point as the temperature of the solid-liquid transition. In turn, `Cc1cc(C)c2c(n1)sc1c(=O)n(N=Cc3ccccc3)nnc12` [Compound 8a, 7,9-Dimethyl-3-[(phenylmethylene)amino]pyrido[3′,2′:4,5]thieno[3,2-d][1,2,3]triazin-4(3H)-one] showed a melting point of 300 to 302 °C. Moreover, in series [1] (1 h), the “Inhibition of acute inflammation % inh” value was determined as 0%. Besides, the “Swel (mean difference in rat paw volume between right and left paw)” value in series [1] (1 h after carrageenan) worked out at 0.256. Also, in series [1] (2 h), the “Inhibition of acute inflammation % inh” value worked out at 14.1%. Also, the “Swel (mean difference in rat paw volume between right and left paw)” value in series [1] (2 h after carrageenan) was 0.223. Moreover, the “Inhibition of acute inflammation % inh” value in series [1] (3 h) came out at 30.75%. The “Swel (mean difference in rat paw volume between right and left paw)” value in series [1] (3 h after carrageenan) was 0.376. Besides, in series [1] (4 h), the “Inhibition of acute inflammation % inh” value was 53.96%. The “Swel (mean difference in rat paw volume between right and left paw)” value in series [1] (4 h after carrageenan) amounted to 0.29.
On to `CSc1nc(C)cc(C)c1C#N` [Compound 3a, S-Methyl-4,6-dimethyl-2-thiopyridine-3-carbonitrile], for which the “Inhibition of acute inflammation % inh” value in series [1] (1 h) is 0%; in series [1] (2 h), 0%; in series [1] (3 h), 12.438%; in series [1] (4 h), 43.7%. In addition, the “Swel (mean difference in rat paw volume between right and left paw)” value in series [1] (1 h after carrageenan) was determined as 0.382; in series [1] (2 h after carrageenan) it was 0.363; in series [1] (3 h after carrageenan), 0.476; in series [1] (4 h after carrageenan), 0.354.
On to `CC1=CC(C)=C(C#N)C2SCN(Cc3ccccc3)CN12` (racemic) [Compound 4c], for which the melting point lay in the range of 125 to 127 °C. Also, the “Inhibition of acute inflammation % inh” value in series [1] (1 h) is listed as 0%. In addition, the “Swel (mean difference in rat paw volume between right and left paw)” value in series [1] (1 h after carrageenan) worked out at 0.45. For the same molecule, the “Inhibition of acute inflammation % inh” value in series [1] (2 h) is recorded as 4.78%. Further, in series [1] (2 h after carrageenan), the “Swel (mean difference in rat paw volume between right and left paw)” value came out at 0.22. The “Inhibition of acute inflammation % inh” value in series [1] (3 h) amounted to 7.39%. The “Swel (mean difference in rat paw volume between right and left paw)” value in series [1] (3 h after carrageenan) worked out at 0.213. Further, in series [1] (4 h), the “Inhibition of acute inflammation % inh” value worked out at 35.08%. Further, the “Swel (mean difference in rat paw volume between right and left paw)” value in series [1] (4 h after carrageenan) worked out at 0.409.
Molecule `Cc1cc(C)c2c(N)c(-n3nc(C)cc3C=C=O)sc2n1` [Compound 9b, 3-Amino-2-[carbonyl (3,5-dimethyl-pyrazol-1-yl)]-4,6-dimethylthieno[2,3-b] pyridine] showed a melting point of 150 to 152 °C.
On to `Cc1cc(C)c2c(N)c(C(=O)NN)sc2n1` [Compound 6, 3-Amino-4,6-dimethylthieno[2,3-b]pyridine-2-carbazide], for which the “Inhibition of acute inflammation % inh” value in series [1] (1 h) worked out at 0%; in series [1] (2 h), 0%; in series [1] (3 h), 38.84%; in series [1] (4 h), 58.67%. In addition, the “Swel (mean difference in rat paw volume between right and left paw)” value in series [1] (1 h after carrageenan) is recorded as 0.410; in series [1] (2 h after carrageenan), 0.486; in series [1] (3 h after carrageenan), 0.332; in series [1] (4 h after carrageenan) it was 0.26.
As for `COc1ccc(C=NNC(=O)c2sc3nc(C)cc(C)c3c2N)cc1` [Compound 7c, 3-Amino-4,6-dimethyl-thieno [2,3-b] pyridine-2-carboxylic acid (4-methoxy-benzylidene)-hyrazide], the “Inhibition of acute inflammation % inh” value in series [1] (1 h) worked out at 11.59%; in series [1] (2 h), 25.64%; in series [1] (3 h), 58.3%; in series [1] (4 h), 63.49%. Further, the “Swel (mean difference in rat paw volume between right and left paw)” value in series [1] (1 h after carrageenan) was determined as 0.203; in series [1] (2 h after carrageenan), 0.193; in series [1] (3 h after carrageenan), 0.226; in series [1] (4 h after carrageenan), 0.23.
Turning to `CC1=CC(C)=C(C#N)C2SC(=Cc3ccccc3)C(=O)N12` (racemic) [Compound 2a], the melting point is 105 to 107 °C. Moreover, the “Inhibition of acute inflammation % inh” value in series [1] (1 h) worked out at 0%. The “Swel (mean difference in rat paw volume between right and left paw)” value in series [1] (1 h after carrageenan) was 0.457. For the same molecule, the “Inhibition of acute inflammation % inh” value in series [1] (2 h) is listed as 0%. For the same molecule, the “Swel (mean difference in rat paw volume between right and left paw)” value in series [1] (2 h after carrageenan) is on record as 0.595. For the same molecule, the “Inhibition of acute inflammation % inh” value in series [1] (3 h) worked out at 16.605%. Besides, the “Swel (mean difference in rat paw volume between right and left paw)” value in series [1] (3 h after carrageenan) is on record as 0.453. For the same molecule, the “Inhibition of acute inflammation % inh” value in series [1] (4 h) was found to be 21.95%. In addition, the “Swel (mean difference in rat paw volume between right and left paw)” value in series [1] (4 h after carrageenan) is recorded as 0.491.
`CCOC(=O)CSc1nc(C)cc(C)c1C#N` [Compound 3b, ethyl 2-(3-cyano-4,6-dimethylpyridin-2-ylthio)acetate] registered a melting point of 93 °C.
Take `CC(C)Cc1ccc(C(C)C(=O)O)cc1` (stereo not drawn) [Ibuprofen, reference compound]: the “Inhibition of acute inflammation % inh” value in series [1] (1 h) was 6.08%; in series [1] (2 h) it was 45%; in series [1] (3 h), 60.66%; in series [1] (4 h), 69.52%. Besides, in series [1] (rat paw oedema, 4 h time interval, subcutaneous, equimolar to ibuprofen 70 mg kg-1), the “inflammation reduction % (4h)” value is 69.5% and 69.52%.
`CC1=CC(C)=C(C#N)C2SCN(c3ccccc3)CN12` (racemic) [Compound 4a, (±)3-Aryl-2,3,4,9a-tetrahydro-6,8-dimethylpyrido[2,1-b][1,3,5]thiadiazine-9-carbonitrile] registered a melting point of 180 to 182 °C. In addition, in series [1] (1 h), the “Inhibition of acute inflammation % inh” value was determined as 0%. The “Swel (mean difference in rat paw volume between right and left paw)” value in series [1] (1 h after carrageenan) came out at 0.394. Further, the “Inhibition of acute inflammation % inh” value in series [1] (2 h) was 0%. Besides, the “Swel (mean difference in rat paw volume between right and left paw)” value in series [1] (2 h after carrageenan) worked out at 0.407. In series [1] (3 h), the “Inhibition of acute inflammation % inh” value stood at 38.174%. Besides, in series [1] (3 h after carrageenan), the “Swel (mean difference in rat paw volume between right and left paw)” value was 0.336. For the same molecule, in series [1] (4 h), the “Inhibition of acute inflammation % inh” value turned out to be 43.38%. Moreover, the “Swel (mean difference in rat paw volume between right and left paw)” value in series [1] (4 h after carrageenan) worked out at 0.356.
Consider `CCOC(=O)c1sc2nc(C)cc(C)c2c1N` [Compound 5, Ethyl-3-amino-4,6-dimethylthieno[2,3-b]pyridine-2-carboxylate], for which the “Inhibition of acute inflammation % inh” value in series [1] (1 h) was found to be 0%; in series [1] (2 h) it was 0%; in series [1] (3 h), 28.921%; in series [1] (4 h) it was 46.03%. Moreover, the “Swel (mean difference in rat paw volume between right and left paw)” value came out at 0.393 in series [1] (1 h after carrageenan), 0.46 in series [1] (2 h after carrageenan), 0.386 in series [1] (3 h after carrageenan) and 0.34 in series [1] (4 h after carrageenan).
Turning to `CC(=O)N(C(C)=O)n1c(C)nc2c(sc3nc(C)cc(C)c32)c1=O` [Compound 10b, 3-Diacetylamino-2,7,9-trimethylpyrido [3',2':4,5]thieno[3,2-d]pyrimidin-4(3H)-one], the melting point fell in the range of 133 to 135 °C.
